# Molecular target: T1, HGXPRTase from T. foetus (Tritrichomonas foetus, UniProt P51900)
# T1 construct: made in house; host or cells: Escherichia coli
# T1 sequence (P51900 1-183): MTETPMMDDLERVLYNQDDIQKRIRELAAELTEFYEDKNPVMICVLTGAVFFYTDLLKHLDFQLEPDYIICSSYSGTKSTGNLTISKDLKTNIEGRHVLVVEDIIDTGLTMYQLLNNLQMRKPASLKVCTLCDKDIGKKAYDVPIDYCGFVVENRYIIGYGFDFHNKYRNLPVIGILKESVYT
# Assay: Enzyme assay, [14C]-guanine to GMP conversion, T. foetus HGXPRTase
# Format: biochemical
# Details: Table 2, compounds of Formula I; recombinant enzyme, 10% DMSO, 37° C., 5 min, pH 6.8; read-out: IC50 TFH (HGXPRTase from T. foetus)
# Procedure: (§1) Protocol For Testing Compounds of Formula I Against Tritrichomonas foetus HGXPRTase, Giardia lamblia GPRTase and Human HGPRTase
# (§2) The enzyme assay mixture, in a final volume of 20 μl, consisted of the following:
# (§3) Bis-Tris-HCl, pH 6.8 0.3 M
# (§4) 5-Phospho-1-ribosylpyrophosphate 0.1 mM
# (§5) [^14 C]-guanine (46 mCi/mmole) 22 μM
# (§6) Thus, all the assay mixtures contain 10% DMSO.
# (§7) The recombinant enzyme, purified to homogeneity in the native form, was diluted in a buffer solution of 50 mM Bis-Tris-HCl, pH 6.8, 6 mM MgCl2, and 1 mM dithiothreitol to a final concentration of 34 μg enzyme protein per ml. Two and one half of the diluted enzyme solution was added to the 20 μl reaction mixture, and maintained at 37° C., to start the enzyme-catalyzed reaction. The reaction was allowed to proceed at 37° C. for exactly 5 min, and then stopped by adding 23 μl of 1 mM guanine and 1 mM GMP to the reaction mixture.
# (§8) Twenty μl of the final mixture was spotted on a polyethyleneimine-cellulose thin layer plate and chromatographed with 5 mM ammonium acetate pH 5.0. The unreacted [^14 C]-guanine migrated at the forefront of the chromatography with an Rf value of 0.62, whereas the product [^14 C]-GMP remained at the origin due to the negative charge of the molecule at pH 5.0. The spots of guanine and GMP were cut out from the plate, and the radioactivity in each spot measured with a Beckman LS-3801 scintillation counter. The radioactivities associated with the GMP and diminished from the guanine sample were used to calculate the amount of substrate converted to product within a unit time period.
# (§9) Protocol For Testing Compounds of Formula II Against Tritrichomonas foetus HGXPRTase Giardia lamblia GPRTase and Human HGPRTase
# as §7, with “half μl” for “half”
row,IC50,Structure (SMILES)
1,240 µM,"O=C1Nc2ccccc2C1=NNc1ccc([N+](=O)[O-])cc1 [(I)1, 3-(4-nitrophenylhydrazono)-1,3-dihydroindol-2-one]"
2,50 µM,"O=C1Nc2ccccc2C1=NN=Cc1ccc([N+](=O)[O-])cc1 [(I)2, 3-(4-nitrophenylidenehydrazono)-1,3-dihydroindol-2-one]"
3,170 µM,"O=C1Nc2ccccc2C1=NN=Cc1ccc(Cl)cc1 [(I)3, 3-(4-chlorophenylidenehydrazono)-1,3-dihydroindol-2-one]"
4,> 1000 µM,"O=C1Nc2ccccc2C1=NN=Cc1cc(Cl)cc(Cl)c1O [(I)4, 3-(2-hydroxy-3,5-dichlorophenylidenehydrazono)-1,3-dihydroindol-2-one]"
5,460 µM,"O=C1Nc2ccccc2C1=NN=Cc1cc(Br)ccc1O [(I)5, 3-(2-hydroxy-5-bromophenylidenehydrazono)-1,3-dihydroindol-2-one]"
6,300 µM,"O=C1Nc2ccc(Br)cc2C1=NN=Cc1ccc(Cl)c(Cl)c1 [(I)6, 3-(3,4-dichlorophenylidenehydrazono)-5-bromo-1,3-dihydroindol-2-one]"
7,200 µM,COc1ccc(CCNC=C2C(=O)Nc3ccccc32)cc1 [(I)7]
8,180 µM,O=C(COc1ccc([N+](=O)[O-])cc1)NN=C1C(=O)Nc2ccccc21 [(I)8]
9,85 µM,"CC(Oc1ccc(Cl)cc1Cl)C(=O)NN=C1C(=O)Nc2ccc(Br)cc21 (centres unmarked) [(I)9, 3-[2-(2,4-dichlorophenoxy)propanoylhydrazono]-5-bromo-1,3-dihydroindol-2-one]"
10,320 µM,"COc1ccc(CC(=O)N/N=C2\C(=O)Nc3ccc(Br)cc32)cc1OC [(I)10, 3-[(3,4-dimethoxyphenyl)acetylhydrazono]-5-bromo-1,3-dihydroindol-2-one]"

# Same assay, conditions: Table 4, compounds of Formula II; recombinant enzyme, 10% DMSO, 37° C., 5 min, pH 6.8; read-out: IC50 TFH (HGXPRTase from T. foetus)
row,IC50,Structure (SMILES)
1,300 µM,"O=C(Nc1cccc([N+](=O)[O-])c1)c1ccc2c(c1)C(=O)OC2=O [(II)1, 5-[N-(3-nitrophenyl)carbamoyl]-1,3-isobenzofurandione]"
2,140 µM,"CC(=O)Nc1ccc(NC(=O)c2ccc3c(c2)C(=O)OC3=O)cc1 [(II)2, 5-[N-(4-acetamidophenyl)carbamoyl]-1,3-isobenzofurandione]"
3,70 µM,"COc1ccc([N+](=O)[O-])cc1NC(=O)c1ccc2c(c1)C(=O)OC2=O [(II)4, 5-[N-(2-methoxy-5-nitrophenyl)carbamoyl]-1,3-isobenzofurandione]"
4,80 µM,"O=C(Nc1ccc(Cl)cc1Cl)c1ccc2c(c1)C(=O)OC2=O [(II)5, 5-[N-(2,4-dichlorophenyl)carbamoyl]-1,3-isobenzofurandione]"
5,22 µM,"COc1ccc(Cl)cc1NC(=O)c1ccc2c(c1)C(=O)OC2=O [(II)6, 5-[N-(2-methoxy-5-chlorophenyl)carbamoyl]-1,3-isobenzofurandione]"
6,380 µM,"O=C(Nc1ccc2c(c1)C(=O)OC2)c1ccc(Cl)cc1 [(II)7, 5-[N-(4-chlorophenyl)carbonylamino]-3-isobenzofuranone]"
7,425 µM,"O=C1NC(=O)c2cc([N+](=O)[O-])c(SCc3ccc(Cl)cc3)cc21 [(II)8, 5-[N-(4-chlorophenyl)methylthio]-6-nitrophthalimide]"

# Same assay, conditions: read-out: IC50 TFH (HGXPRTase from T. foetus)
row,IC50,Structure (SMILES)
1,50 µM,"O=C(Nc1ccc(Cl)c(Cl)c1)c1ccc2c(c1)C(=O)OC2=O [(II)3, 5-[N-(3,4-dichlorophenyl)carbamoyl]-1,3-isobenzofurandione]"

# Molecular target: T2, GPRTase from G. lamblia (Giardia duodenalis, UniProt Q24973)
# T2 sequence (Q24973 1-230): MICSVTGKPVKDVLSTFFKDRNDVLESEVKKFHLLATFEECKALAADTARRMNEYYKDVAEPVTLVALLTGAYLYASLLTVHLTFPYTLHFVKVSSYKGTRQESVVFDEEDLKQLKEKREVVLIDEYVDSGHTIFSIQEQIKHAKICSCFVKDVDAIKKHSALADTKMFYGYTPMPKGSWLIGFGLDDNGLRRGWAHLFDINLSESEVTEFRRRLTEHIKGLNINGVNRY
# Assay: Enzyme assay, [14C]-guanine to GMP conversion, G. lamblia GPRTase
# Format: biochemical
# Details: Table 2, compounds of Formula I; recombinant enzyme, 10% DMSO, 37° C., 5 min, pH 6.8; read-out: IC50 GLG (GPRTase from G. lamblia)
# Procedure: as §1, §2, §3, §4, §5, §6, §7, §8, §9
# as §7, with “half μl” for “half”
row,IC50,Structure (SMILES)
1,> 1000 µM,"O=C1Nc2ccccc2C1=NNc1ccc([N+](=O)[O-])cc1 [(I)1, 3-(4-nitrophenylhydrazono)-1,3-dihydroindol-2-one]"
2,> 1000 µM,"O=C1Nc2ccccc2C1=NN=Cc1ccc([N+](=O)[O-])cc1 [(I)2, 3-(4-nitrophenylidenehydrazono)-1,3-dihydroindol-2-one]"
3,> 1000 µM,"O=C1Nc2ccccc2C1=NN=Cc1ccc(Cl)cc1 [(I)3, 3-(4-chlorophenylidenehydrazono)-1,3-dihydroindol-2-one]"
4,> 1000 µM,"O=C1Nc2ccccc2C1=NN=Cc1cc(Cl)cc(Cl)c1O [(I)4, 3-(2-hydroxy-3,5-dichlorophenylidenehydrazono)-1,3-dihydroindol-2-one]"
5,> 1000 µM,"O=C1Nc2ccccc2C1=NN=Cc1cc(Br)ccc1O [(I)5, 3-(2-hydroxy-5-bromophenylidenehydrazono)-1,3-dihydroindol-2-one]"
6,> 1000 µM,"O=C1Nc2ccc(Br)cc2C1=NN=Cc1ccc(Cl)c(Cl)c1 [(I)6, 3-(3,4-dichlorophenylidenehydrazono)-5-bromo-1,3-dihydroindol-2-one]"
7,> 1000 µM,COc1ccc(CCNC=C2C(=O)Nc3ccccc32)cc1 [(I)7]
8,> 1000 µM,O=C(COc1ccc([N+](=O)[O-])cc1)NN=C1C(=O)Nc2ccccc21 [(I)8]
9,30 µM,"CC(Oc1ccc(Cl)cc1Cl)C(=O)NN=C1C(=O)Nc2ccc(Br)cc21 (centres unmarked) [(I)9, 3-[2-(2,4-dichlorophenoxy)propanoylhydrazono]-5-bromo-1,3-dihydroindol-2-one]"
10,90 µM,"COc1ccc(CC(=O)N/N=C2\C(=O)Nc3ccc(Br)cc32)cc1OC [(I)10, 3-[(3,4-dimethoxyphenyl)acetylhydrazono]-5-bromo-1,3-dihydroindol-2-one]"

# Same assay, conditions: Table 4, compounds of Formula II; recombinant enzyme, 10% DMSO, 37° C., 5 min, pH 6.8; read-out: IC50 GLG (GPRTase from G. lamblia)
row,IC50,Structure (SMILES)
1,> 1000 µM,"O=C(Nc1cccc([N+](=O)[O-])c1)c1ccc2c(c1)C(=O)OC2=O [(II)1, 5-[N-(3-nitrophenyl)carbamoyl]-1,3-isobenzofurandione]"
2,> 1000 µM,"CC(=O)Nc1ccc(NC(=O)c2ccc3c(c2)C(=O)OC3=O)cc1 [(II)2, 5-[N-(4-acetamidophenyl)carbamoyl]-1,3-isobenzofurandione]"
3,30 µM,"O=C(Nc1ccc(Cl)c(Cl)c1)c1ccc2c(c1)C(=O)OC2=O [(II)3, 5-[N-(3,4-dichlorophenyl)carbamoyl]-1,3-isobenzofurandione]"
4,500 µM,"COc1ccc([N+](=O)[O-])cc1NC(=O)c1ccc2c(c1)C(=O)OC2=O [(II)4, 5-[N-(2-methoxy-5-nitrophenyl)carbamoyl]-1,3-isobenzofurandione]"
5,200 µM,"O=C(Nc1ccc(Cl)cc1Cl)c1ccc2c(c1)C(=O)OC2=O [(II)5, 5-[N-(2,4-dichlorophenyl)carbamoyl]-1,3-isobenzofurandione]"
6,750 µM,"COc1ccc(Cl)cc1NC(=O)c1ccc2c(c1)C(=O)OC2=O [(II)6, 5-[N-(2-methoxy-5-chlorophenyl)carbamoyl]-1,3-isobenzofurandione]"
7,> 1000 µM,"O=C(Nc1ccc2c(c1)C(=O)OC2)c1ccc(Cl)cc1 [(II)7, 5-[N-(4-chlorophenyl)carbonylamino]-3-isobenzofuranone]"
8,> 1000 µM,"O=C1NC(=O)c2cc([N+](=O)[O-])c(SCc3ccc(Cl)cc3)cc21 [(II)8, 5-[N-(4-chlorophenyl)methylthio]-6-nitrophthalimide]"

# Molecular target: T3, Human HGPRTase (Homo sapiens, UniProt P00492)
# T3 sequence (P00492 1-218): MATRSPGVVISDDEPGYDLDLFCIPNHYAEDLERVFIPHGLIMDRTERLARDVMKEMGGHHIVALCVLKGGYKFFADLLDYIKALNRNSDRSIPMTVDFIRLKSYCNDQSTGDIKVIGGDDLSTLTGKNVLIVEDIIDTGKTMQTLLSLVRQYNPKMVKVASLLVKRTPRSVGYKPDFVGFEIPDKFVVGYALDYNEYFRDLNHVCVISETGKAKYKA
# Assay: Enzyme assay, [14C]-guanine to GMP conversion, human HGPRTase
# Format: biochemical
# Details: Table 2, compounds of Formula I; recombinant enzyme, 10% DMSO, 37° C., 5 min, pH 6.8; read-out: IC50 HH (Human HGPRTase)
# Procedure: as §1, §2, §3, §4, §5, §6, §7, §8, §9
# as §7, with “half μl” for “half”
row,IC50,Structure (SMILES)
1,200 µM,"O=C1Nc2ccccc2C1=NNc1ccc([N+](=O)[O-])cc1 [(I)1, 3-(4-nitrophenylhydrazono)-1,3-dihydroindol-2-one]"
2,> 1000 µM,"O=C1Nc2ccccc2C1=NN=Cc1ccc([N+](=O)[O-])cc1 [(I)2, 3-(4-nitrophenylidenehydrazono)-1,3-dihydroindol-2-one]"
3,> 1000 µM,"O=C1Nc2ccccc2C1=NN=Cc1ccc(Cl)cc1 [(I)3, 3-(4-chlorophenylidenehydrazono)-1,3-dihydroindol-2-one]"
4,> 1000 µM,"O=C1Nc2ccccc2C1=NN=Cc1cc(Br)ccc1O [(I)5, 3-(2-hydroxy-5-bromophenylidenehydrazono)-1,3-dihydroindol-2-one]"
5,> 1000 µM,"O=C1Nc2ccc(Br)cc2C1=NN=Cc1ccc(Cl)c(Cl)c1 [(I)6, 3-(3,4-dichlorophenylidenehydrazono)-5-bromo-1,3-dihydroindol-2-one]"
6,> 1000 µM,COc1ccc(CCNC=C2C(=O)Nc3ccccc32)cc1 [(I)7]
7,> 1000 µM,O=C(COc1ccc([N+](=O)[O-])cc1)NN=C1C(=O)Nc2ccccc21 [(I)8]
8,> 1000 µM,"CC(Oc1ccc(Cl)cc1Cl)C(=O)NN=C1C(=O)Nc2ccc(Br)cc21 (centres unmarked) [(I)9, 3-[2-(2,4-dichlorophenoxy)propanoylhydrazono]-5-bromo-1,3-dihydroindol-2-one]"
9,> 1000 µM,"COc1ccc(CC(=O)N/N=C2\C(=O)Nc3ccc(Br)cc32)cc1OC [(I)10, 3-[(3,4-dimethoxyphenyl)acetylhydrazono]-5-bromo-1,3-dihydroindol-2-one]"

# Same assay, conditions: Table 4, compounds of Formula II; recombinant enzyme, 10% DMSO, 37° C., 5 min, pH 6.8; read-out: IC50 HH (Human HGPRTase)
row,IC50,Structure (SMILES)
1,> 1000 µM,"O=C(Nc1cccc([N+](=O)[O-])c1)c1ccc2c(c1)C(=O)OC2=O [(II)1, 5-[N-(3-nitrophenyl)carbamoyl]-1,3-isobenzofurandione]"
2,> 1000 µM,"CC(=O)Nc1ccc(NC(=O)c2ccc3c(c2)C(=O)OC3=O)cc1 [(II)2, 5-[N-(4-acetamidophenyl)carbamoyl]-1,3-isobenzofurandione]"
3,> 1000 µM,"O=C(Nc1ccc(Cl)c(Cl)c1)c1ccc2c(c1)C(=O)OC2=O [(II)3, 5-[N-(3,4-dichlorophenyl)carbamoyl]-1,3-isobenzofurandione]"
4,> 1000 µM,"COc1ccc([N+](=O)[O-])cc1NC(=O)c1ccc2c(c1)C(=O)OC2=O [(II)4, 5-[N-(2-methoxy-5-nitrophenyl)carbamoyl]-1,3-isobenzofurandione]"
5,> 1000 µM,"O=C(Nc1ccc(Cl)cc1Cl)c1ccc2c(c1)C(=O)OC2=O [(II)5, 5-[N-(2,4-dichlorophenyl)carbamoyl]-1,3-isobenzofurandione]"
6,> 1000 µM,"COc1ccc(Cl)cc1NC(=O)c1ccc2c(c1)C(=O)OC2=O [(II)6, 5-[N-(2-methoxy-5-chlorophenyl)carbamoyl]-1,3-isobenzofurandione]"
7,> 1000 µM,"O=C(Nc1ccc2c(c1)C(=O)OC2)c1ccc(Cl)cc1 [(II)7, 5-[N-(4-chlorophenyl)carbonylamino]-3-isobenzofuranone]"
8,> 1000 µM,"O=C1NC(=O)c2cc([N+](=O)[O-])c(SCc3ccc(Cl)cc3)cc21 [(II)8, 5-[N-(4-chlorophenyl)methylthio]-6-nitrophthalimide]"
